Test results published in paper PMC9822066 (Molecules, 2022).
Counter-ions that a name gives are not always drawn. Like-named read-outs stand apart in the source and are kept apart here.

Tests used:
human H3R = biological target: T1, human H3R (Homo sapiens, UniProt Q9Y5N1); assay: [3H]Nα-methylhistamine radioligand binding assay in HEK293 cells stably expressing hH3R
T1 construct: expressed in transfected cells; host or cells: HEK293
Procedure: Final compounds were tested for their H3R affinity in a radioligand binding assay using [^3H]N^α-methylhistamine as radioligand in HEK293 cells stably expressing hH3R [25]. […] Affinity to hH3R stably expressed in HEK293 cells was evaluated in a radioligand binding assay as described previously. […] The radioactivity was counted in a MicroBeta Trilux counter (PerkinElmer). Data were fitted to a one-site curve-fitting equation with Prism 6 (GraphPad Software, San Diego, CA, USA) and Ki values were calculated from IC50 values (from at least three experiments performed in duplicates) according to the Cheng−Prusoff equation [52].

[1] = biological target: T2, electric eel AChE (eeAChE) (Electrophorus electricus, UniProt O42275); assay: biochemical; conditions: for inhibition at 10 µM: read-out: eeAChE % Inh. at 10 µM; for IC50: mean ± SEM, triplicate independent experiments, read-out: eeAChE IC50
T2 construct: purchased Sigma–Aldrich (Steinheim, Germany)

[2] = biological target: BuChE from equine serum (eqBuChE) (Equus caballus, UniProt P81908); assay: biochemical; type: biochemical; conditions: for IC50: mean ± SEM, triplicate independent experiments
hMAO B = biological target: T3, hMAO B (Homo sapiens, UniProt P27338); assay: Fluorometric MAO assay, hMAO B inhibition; type: biochemical; conditions: mean ± SEM of two independent experiments, read-out: hMAO B %Inh. at 1 µM
T3 sequence (P27338 1-520): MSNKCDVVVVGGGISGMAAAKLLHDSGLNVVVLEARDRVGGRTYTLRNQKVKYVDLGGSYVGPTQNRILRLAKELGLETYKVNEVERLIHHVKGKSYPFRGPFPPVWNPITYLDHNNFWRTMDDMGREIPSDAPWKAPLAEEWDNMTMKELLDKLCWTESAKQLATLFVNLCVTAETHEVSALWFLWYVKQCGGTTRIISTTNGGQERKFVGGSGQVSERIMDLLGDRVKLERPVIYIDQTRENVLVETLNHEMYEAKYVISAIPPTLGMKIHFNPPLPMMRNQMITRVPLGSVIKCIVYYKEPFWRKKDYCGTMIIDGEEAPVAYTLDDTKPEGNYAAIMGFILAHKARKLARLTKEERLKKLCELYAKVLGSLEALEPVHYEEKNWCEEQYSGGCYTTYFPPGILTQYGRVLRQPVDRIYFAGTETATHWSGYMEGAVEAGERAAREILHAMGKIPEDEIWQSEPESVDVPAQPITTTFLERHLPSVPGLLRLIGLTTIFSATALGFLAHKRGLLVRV

T2 sequence (O42275 24-633): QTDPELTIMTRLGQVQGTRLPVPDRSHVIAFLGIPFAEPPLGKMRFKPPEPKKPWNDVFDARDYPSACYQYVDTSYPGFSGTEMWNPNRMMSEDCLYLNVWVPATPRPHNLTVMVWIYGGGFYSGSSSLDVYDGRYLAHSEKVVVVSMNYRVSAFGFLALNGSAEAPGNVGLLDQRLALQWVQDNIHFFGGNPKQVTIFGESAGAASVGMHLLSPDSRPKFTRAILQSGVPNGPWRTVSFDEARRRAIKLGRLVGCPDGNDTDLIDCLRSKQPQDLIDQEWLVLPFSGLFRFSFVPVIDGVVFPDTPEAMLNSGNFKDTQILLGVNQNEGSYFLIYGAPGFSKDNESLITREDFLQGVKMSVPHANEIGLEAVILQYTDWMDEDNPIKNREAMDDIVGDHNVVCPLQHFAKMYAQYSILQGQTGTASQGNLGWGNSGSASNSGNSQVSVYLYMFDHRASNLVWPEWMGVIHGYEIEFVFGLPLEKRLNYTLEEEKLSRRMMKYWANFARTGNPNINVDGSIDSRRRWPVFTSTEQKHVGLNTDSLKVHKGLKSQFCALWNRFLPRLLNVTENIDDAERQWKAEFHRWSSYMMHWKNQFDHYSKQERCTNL
T1 sequence (Q9Y5N1 whole entry): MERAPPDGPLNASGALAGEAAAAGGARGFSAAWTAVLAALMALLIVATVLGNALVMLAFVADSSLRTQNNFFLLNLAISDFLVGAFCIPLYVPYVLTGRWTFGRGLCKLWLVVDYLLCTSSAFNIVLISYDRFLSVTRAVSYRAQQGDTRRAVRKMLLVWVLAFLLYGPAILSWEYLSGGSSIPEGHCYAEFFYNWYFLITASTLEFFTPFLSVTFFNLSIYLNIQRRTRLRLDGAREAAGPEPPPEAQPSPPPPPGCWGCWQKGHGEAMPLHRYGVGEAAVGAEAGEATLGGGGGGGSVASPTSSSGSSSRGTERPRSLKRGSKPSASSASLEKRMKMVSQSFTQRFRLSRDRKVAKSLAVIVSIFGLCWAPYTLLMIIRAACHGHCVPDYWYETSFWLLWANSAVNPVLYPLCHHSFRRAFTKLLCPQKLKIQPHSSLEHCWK
BuChE from equine serum (eqBuChE), sequence (P81908 whole entry): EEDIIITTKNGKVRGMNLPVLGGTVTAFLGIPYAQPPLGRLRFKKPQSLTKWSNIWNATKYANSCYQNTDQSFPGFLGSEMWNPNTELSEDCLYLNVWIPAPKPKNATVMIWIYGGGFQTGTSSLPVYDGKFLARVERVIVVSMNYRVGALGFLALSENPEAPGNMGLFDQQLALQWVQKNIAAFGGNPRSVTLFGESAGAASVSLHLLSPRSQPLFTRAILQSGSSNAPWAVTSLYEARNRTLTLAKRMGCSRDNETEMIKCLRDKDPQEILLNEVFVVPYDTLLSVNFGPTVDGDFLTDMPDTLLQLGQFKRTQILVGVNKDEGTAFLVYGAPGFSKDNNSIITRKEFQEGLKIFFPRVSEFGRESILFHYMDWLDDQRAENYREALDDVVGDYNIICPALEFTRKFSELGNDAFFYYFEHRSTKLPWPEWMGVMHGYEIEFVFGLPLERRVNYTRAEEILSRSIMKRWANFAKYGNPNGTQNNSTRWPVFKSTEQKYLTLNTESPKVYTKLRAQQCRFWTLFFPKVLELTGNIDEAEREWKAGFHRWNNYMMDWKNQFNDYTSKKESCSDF

| Structure (SMILES) | Ki (human H3R) | inhibition at 10 µM [1] | selectivity eqBuChE versus eeAChE [2] | IC50 [2] | inhibition at 1 µM (hMAO B) | IC50 [1] | Ki (human H3R; mean value within the 95% CI, three repetitions, read-out: hH3R Ki) |
| --- | --- | --- | --- | --- | --- | --- | --- |
| O=C(O)C(=O)O.O=C(c1ccccc1)c1ccccc1OCCCCCN1CCCCC1 [Compound 2, Phenyl (2-((5-(piperidin-1-yl)pentyl)oxy)phenyl)methanone hydrogen oxalate] | 371 nM | 22% | selective eqBuChE inhibitors | 1610 ± 60 nM | 23% | – | – |
| O=C(c1ccccc1)c1cccc(OCCCCCN2CCCCC2)c1 [Compound 3, Phenyl (3-((5-(piperidin-1-yl)pentyl)oxy)phenyl)methanone hydrogen oxalate] | 210 nM | – | – | 4010 ± 67 nM | 15% | 7750 ± 329 nM | – |
| O=C(c1ccccc1)c1ccc(OCCCCCN2CCCCC2)cc1 [Compound 4, Phenyl (4-((5-(piperidin-1-yl)pentyl)oxy)phenyl)methanone hydrogen oxalate] | – | 41% | – | 2480 ± 40 nM | 44% | – | – |
| O=C(c1ccc(Cl)cc1)c1ccc(OCCCCCN2CCCCC2)cc1 [Compound 5, (4-Chlorophenyl) (4-((5-(piperidin-1-yl)pentyl)oxy)phenyl)methanone hydrogen oxalate] | 20 nM | – | – | 1680 ± 17 nM | 18% | 2870 ± 71 nM | – |
| O=C(O)C(=O)O.O=C(c1ccccc1)c1ccccc1OCCCCCCN1CCCCC1 [Compound 7, (2-((6-(Piperidin-1-yl)hexyl)oxy)phenyl)(phenyl)methanone hydrogen oxalate] | 161 nM | 3% | selective eqBuChE inhibitors | 2110 ± 32 nM | 12% | – | – |
| O=C(c1ccc(Cl)cc1)c1ccc(OCCCCCCN2CCCCC2)cc1 [Compound 10, (4-Chlorophenyl) (4-((6-(piperidin-1-yl)hexyl)oxy)phenyl)methanone hydrogen oxalate] | 25 nM | – | – | 2460 ± 61 nM | 39% | 2670 ± 94 nM | – |
| O=C(c1ccc(F)cc1)c1ccc(OCCCCCCN2CCCCC2)cc1 [Compound 11, (4-Fluorophenyl) (4-((6-(piperidin-1-yl)hexyl)oxy)phenyl)methanone hydrogen oxalate] | 26 nM | – | – | 419 ± 2 nM | 28% | 3098 ± 9 nM | – |
| CC1CCCN(CCCCCOc2ccccc2C(=O)c2ccccc2)C1.O=C(O)C(=O)O (centres unmarked) [Compound 12, (2-((5-(3-Methylpiperidin-1-yl)pentyl)oxy)phenyl)(phenyl)methanone hydrogen oxalate] | 208 nM | 16% | selective eqBuChE inhibitors | 1610 ± 61 nM | 9% | – | – |
| CC1CCCN(CCCCCOc2cccc(C(=O)c3ccccc3)c2)C1 (centres unmarked) [Compound 13, (3-((5-(3-Methylpiperidin-1-yl)pentyl)oxy)phenyl)(phenyl)methanone hydrogen oxalate] | 78 nM | – | – | 3420 ± 78 nM | 8% | 3790 ± 104 nM | – |
| CC1CCCN(CCCCCOc2ccc(C(=O)c3ccc(Cl)cc3)cc2)C1 (centres unmarked) [Compound 15, (4-Chlorophenyl) (4-((5-(3-methylpiperin-1-yl)pentyl)oxy)phenyl)methanone hydrogen oxalate] | – | – | – | 2560 ± 50 nM | 19% | 2650 ± 87 nM | 37 nM |
| CC1CCCN(CCCCCOc2ccc(C(=O)c3ccc(F)cc3)cc2)C1 (centres unmarked) [Compound 16, (4-Fluorophenyl) (4-((5-(3-methylpiperidin-1-yl)pentyl)oxy)phenyl)methanone hydrogen oxalate] | 12 nM | – | – | 311 ± 6 nM | 20% | 2023 ± 6 nM | – |
| Clc1ccc(CCCOCCCN2CCCCC2)cc1 [pitolisant, reference compound] | – | 3% | – | – | – | – | – |
